From US12084437B2, “Halo-substituted piperidines as orexin receptor modulators” (AstraZeneca AB, priority 2016, dated 2024)

Legend:
OX1 = target: T1, OX1 (Homo sapiens, UniProt O43613); assay: Orexin receptor cell-based functional assay, [Ca2+]i by FLIPR, CHO-OX1 cells; conditions: FLIPR calcium, antagonism of EC90 of [OX], read-out: OXI, IC50
T1 construct: expressed in transfected cells; host or cells: CHO (CHO-OX1)
T1 sequence (O43613 1-425): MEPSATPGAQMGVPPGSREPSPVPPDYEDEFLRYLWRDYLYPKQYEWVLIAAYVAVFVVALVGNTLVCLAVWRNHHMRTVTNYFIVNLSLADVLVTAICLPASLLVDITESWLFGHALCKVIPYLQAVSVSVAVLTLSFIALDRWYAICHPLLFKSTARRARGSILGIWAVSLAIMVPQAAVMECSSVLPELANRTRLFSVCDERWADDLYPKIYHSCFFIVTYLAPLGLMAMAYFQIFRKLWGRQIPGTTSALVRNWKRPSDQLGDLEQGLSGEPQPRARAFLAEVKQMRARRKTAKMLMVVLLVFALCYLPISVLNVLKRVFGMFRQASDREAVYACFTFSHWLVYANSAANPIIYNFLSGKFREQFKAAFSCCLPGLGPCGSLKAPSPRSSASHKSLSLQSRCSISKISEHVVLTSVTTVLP

OX2 = target: T2, OX2 (Homo sapiens, UniProt O43614); assay: Orexin receptor cell-based functional assay, [Ca2+]i by FLIPR, CHO-OX2 cells; conditions: FLIPR calcium, antagonism of EC90 of [OX]
T2 construct: expressed in transfected cells; host or cells: CHO (CHO-OX2)
T2 sequence (O43614 1-444): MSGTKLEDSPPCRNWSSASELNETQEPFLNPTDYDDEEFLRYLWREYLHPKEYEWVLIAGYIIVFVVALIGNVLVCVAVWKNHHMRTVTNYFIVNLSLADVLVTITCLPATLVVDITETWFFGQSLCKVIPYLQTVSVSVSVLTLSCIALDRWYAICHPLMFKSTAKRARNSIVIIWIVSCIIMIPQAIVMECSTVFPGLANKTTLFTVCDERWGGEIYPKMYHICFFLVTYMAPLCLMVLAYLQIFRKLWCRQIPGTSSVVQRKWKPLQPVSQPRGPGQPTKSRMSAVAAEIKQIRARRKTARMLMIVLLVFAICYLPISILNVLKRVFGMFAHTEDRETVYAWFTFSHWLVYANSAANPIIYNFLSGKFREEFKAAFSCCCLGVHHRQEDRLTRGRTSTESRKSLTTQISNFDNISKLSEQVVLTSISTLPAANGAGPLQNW
Summary of the method: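 CHO cells expressing human OX1 or OX2 (20,000/well, grown overnight) were loaded with Calcium6 dye plus 2.5 mM probenecid for 2 h at 37 °C, then preincubated 30 min with compound (0.1 nM–10 µM). FLIPR fluorescence (ex 488/em 540 nm) was tracked before and after an EC90 orexin challenge.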

[1] = Metabolic stability and intrinsic clearance in human liver microsomes; assay type: in vitro ADME; conditions: pooled human liver microsomes, NADPH, 1 uM compound, 37 C; read-out: hMics CLint
Procedure: Human Liver Microsomes (HLM) were obtained from BD Gentest UltraPool 150 donor (Lot no. 38289) at a concentration of 20 mg/mL protein. HLMs are stored in a −80° C. freezer. Prior to use, the pooled HLM were removed from the freezer and allowed to thaw in a 37° C. water bath and then stored on wet ice. 100 μmol/L test compound solution and positive control (PC) solutions (phenacetin, verapamil, diclofenac, imiprimine, benzydamine and metoprolol) were prepared by adding 2 μL of 10 mmol/L stock solution in DMSO to 198 μL of acetonitrile. HML mixtures were prepared by adding 1325 μL of 20 mg/mL HLM to 22260 μL of phosphate buffer to obtain the HLM mixture at 1.1236 mg/mL. Prior to testing the compounds, 222.5 μL of 1.1236 mg/mL HLM mixtures and 25 μL of the 10 mM NADPH were mixed in the incubation plates on a whirly mixer for 10 seconds. The incubation plates were pre-warmed at 37° C. for 8 min. […]
Quantitative LC-MS analysis were carried out with an API 4000 (AB sciex, USA) Ultra mass spectrometer at MRM mode (MS/MS). Peak areas were determined from extracted ion chromatograms. Percent parent remaining was calculated from peak area of test compound or PC. The slope value, k, was determined by linear regression of the natural logarithm of percent parent remaining vs. incubation time curve. […]
The in vitro half-life (in vitro t1/2) was determined from the slope value: in vitro t½=−(0.693/k). […]

C[C@@H]1CC(F)(F)CN(C(=O)c2nn(C)cc2-c2ccc(Cl)cc2)[C@@H]1CNc1cnc(C(F)(F)F)cn1 [Compound 129, (4-(4-chlorophenyl)-1-methyl-1H-pyrazol-3-yl)((2S,3R)-5,5-difluoro-3-methyl-2-(((5-(trifluoromethyl)pyrazin-2-yl)amino)methyl)piperidin-1-yl)methanone]
IC50 (OX1): 4 nM | IC50 (OX2): 3500 nM | microsomal CLint at 1 µM [1]: < 3 µL/min/mg

Cc1nc(C(=O)N2CC(F)(F)C[C@@H](C)[C@H]2CNc2ccc(C(F)(F)F)cn2)c(-c2ccc(F)cc2)s1 [Compound 185, ((2S,3R)-5,5-difluoro-3-methyl-2-(((5-(trifluoromethyl)pyridin-2-yl)amino)methyl)piperidin-1-yl)(5-(4-fluorophenyl)-2-methylthiazol-4-yl)methanone]
IC50 (OX1): 2 nM | IC50 (OX2): > 5000 nM | microsomal CLint at 1 µM [1]: 29 µL/min/mg
